≈ marks a conversion by molar mass, not a printed value.
What was measured:
Experiment in all cases: Bacterial growth minimal inhibitory concentration (microdilution, cation-adjusted Mueller-Hinton Broth)
S. aureus A798 = format: cell-based, Staphylococcus aureus; details: multiply-resistant strain (methicillin- and quinolone-resistant); for MIC: Staphylococcus aureus, A798
Procedure, shortened: (§1)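 Broth microdilution in cation-adjusted Mueller-Hinton Broth per CLSI M7-A7; MICs in mg/L. S. aureus A798 is methicillin- and quinolone-resistant, K. pneumoniae T6474 penicillin-, cephalosporin- and quinolone-resistant; E. coli ATCC25922 and P. aeruginosa ATCC 27853 are quinolone-sensitive.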

P. aeruginosa ATCC 27853 = format: cell-based, Pseudomonas aeruginosa; details: quinolone-sensitive strain; for MIC: Pseudomonas aeruginosa, ATCC27853
Procedure, shortened: as §1

E. coli ATCC25922 = format: cell-based; details: quinolone-sensitive strain; for MIC: Escherichia coli, ATCC25922
Procedure, shortened: as §1

K. pneumoniae T6474 = format: cell-based, Klebsiella pneumoniae; details: multiply-resistant strain (penicillin-, cephalosporin- and quinolone-resistant); for MIC: Klebsiella pneumoniae, T6474
Procedure, shortened: as §1

MIC (S. aureus A798) [µg/mL]	MIC (P. aeruginosa ATCC 27853) [µg/mL]	MIC (E. coli ATCC25922) [µg/mL]	MIC (K. pneumoniae T6474) [µg/mL]	MIC for S. aureus A798 (S. aureus A798) [µg/mL]	MIC for P. aeruginosa ATCC 27853 (P. aeruginosa ATCC 27853) [µg/mL]	MIC for E. coli ATCC25922 (E. coli ATCC25922) [µg/mL]	MIC for K. pneumoniae T6474 (K. pneumoniae T6474) [µg/mL]	Compound
0.5 (≈ 0.962 µM)	0.5 (≈ 0.962 µM)	1 (≈ 1.92 µM)	1 (≈ 1.92 µM)					CNCCOc1cncc(-c2cccc(CNCC[C@H]3CN(c4ccc5c(n4)NC(=O)CO5)C(=O)O3)c2)n1 [Example $164, 6-[(S)-5-(2-{3-[6-(2-methylamino-ethoxy)-pyrazin-2-yl]-benzylamino}-ethyl)-2-oxo-oxazolidin-3-yl]-4H-pyrido[3,2-b][1,4]oxazin-3-one]
8 (≈ 15.8 µM)	2 (≈ 3.95 µM)	4 (≈ 7.9 µM)	4 (≈ 7.9 µM)					NCCOc1cccc(-c2ccnc(CNCC[C@H]3CN(c4ccc5c(n4)NC(=O)CO5)C(=O)O3)n2)n1 [Example $165, 6-{(S)-5-[2-({4-[6-(2-amino-ethoxy)-pyridin-2-yl]-pyrimidin-2-ylmethyl}-amino)-ethyl]-2-oxo-oxazolidin-3-yl}-4H-pyrido[3,2-b][1,4]oxazin-3-one]
8 (≈ 14.3 µM)	2 (≈ 3.57 µM)	4 (≈ 7.14 µM)	8 (≈ 14.3 µM)					CO[C@H]1CNC[C@H]1Oc1cccc(-c2cccc(CNCC[C@H]3CN(c4ccc5c(n4)NC(=O)CO5)C(=O)O3)c2)n1 (relative stereo) [Example $184, (3R*,4S*)-6-[(S)-5-(2-{3-[6-(4-methoxy-pyrrolidin-3-yloxy)-pyridin-2-yl]-benzylamino}-ethyl)-2-oxo-oxazolidin-3-yl]-4H-pyrido[3,2-b][1,4]oxazin-3-one]
0.25 (≈ 0.447 µM)	2 (≈ 3.57 µM)	1 (≈ 1.79 µM)	2 (≈ 3.57 µM)					CN1CC[C@@H](Oc2cccc(-c3cccc(CNCC[C@@H]4CN(c5ccc6c(c5)NC(=O)CS6)C(=O)O4)c3)n2)C1 [Example $169, 6-[(R)-5-(2-{3-[6-((R)-1-methyl-pyrrolidin-3-yloxy)-pyridin-2-yl]-benzylamino}-ethyl)-2-oxo-oxazolidin-3-yl]-4H-benzo[1,4]thiazin-3-one]
0.25 (≈ 0.47 µM)	0.5 (≈ 0.941 µM)	0.5 (≈ 0.941 µM)	1 (≈ 1.88 µM)					CN1CC(Oc2cccc(-c3ccnc(CNCC[C@H]4CN(c5ccc6c(n5)NC(=O)CO6)C(=O)O4)c3)n2)C1 [Example $186, 6-[(S)-5-(2-{[6-(1-methyl-azetidin-3-yloxy)-[2,4′]bipyridinyl-2′-ylmethyl]-amino}-ethyl)-2-oxo-oxazolidin-3-yl]-4H-pyrido[3,2-b][1,4]oxazin-3-one]
2 (≈ 3.66 µM)	8 (≈ 14.6 µM)	4 (≈ 7.32 µM)	2 (≈ 3.66 µM)					CN1CC[C@H](Oc2cncc(-c3cccc(CNCC[C@H]4CN(c5ccc6c(n5)NC(=O)CO6)C(=O)O4)n3)n2)C1 [Example $145, 6-{(S)-5-[2-({6-[6-((S)-1-methyl-pyrrolidin-3-yloxy)-pyrazin-2-yl]-pyridin-2-ylmethyl}-amino)-ethyl]-2-oxo-oxazolidin-3-yl}-4H-pyrido[3,2-b][1,4]oxazin-3-one]
4 (≈ 7.9 µM)	2 (≈ 3.95 µM)	8 (≈ 15.8 µM)	16 (≈ 31.6 µM)					NCCOc1cncc(-c2ccnc(CNCC[C@H]3CN(c4ccc5c(n4)NC(=O)CO5)C(=O)O3)c2)n1 [Example $158, 6-{(S)-5-[2-({4-[6-(2-amino-ethoxy)-pyrazin-2-yl]-pyridin-2-ylmethyl}-amino)-ethyl]-2-oxo-oxazolidin-3-yl}-4H-pyrido[3,2-b][1,4]oxazin-3-one]
0.5 (≈ 0.895 µM)	2 (≈ 3.58 µM)	2 (≈ 3.58 µM)	2 (≈ 3.58 µM)					CN1CC[C@@H](COc2cccc(-c3cccc(CNCC[C@H]4CN(c5ccc6c(n5)NC(=O)CO6)C(=O)O4)c3)n2)C1 [Example $140, 6-[(S)-5-(2-{3-[6-((R)-1-methyl-pyrrolidin-3-ylmethoxy)-pyridin-2-yl]-benzylamino}-ethyl)-2-oxo-oxazolidin-3-yl]-4H-pyrido[3,2-b][1,4]oxazin-3-one]
0.25 (≈ 0.435 µM)	2 (≈ 3.48 µM)	2 (≈ 3.48 µM)	4 (≈ 6.96 µM)					COc1cc(O[C@H]2CCN(C)C2)cc(-c2cccc(CNCC[C@H]3CN(c4ccc5c(n4)NC(=O)CO5)C(=O)O3)c2)n1 [Example $170, 6-[(S)-5-(2-{3-[6-methoxy-4-((S)-1-methyl-pyrrolidin-3-yloxy)-pyridin-2-yl]-benzylamino}-ethyl)-2-oxo-oxazolidin-3-yl]-4H-pyrido[3,2-b][1,4]oxazin-3-one]
4 (≈ 7.54 µM)	1 (≈ 1.88 µM)	2 (≈ 3.77 µM)	2 (≈ 3.77 µM)					O=C1COc2ccc(N3C[C@@H](CCNCc4cccc(-c5cccc(OC[C@@H]6CCN6)n5)c4)OC3=O)nc2N1 [Example $151, 6-[(R)-5-(2-{3-[6-((S)-1-azetidin-2-ylmethoxy)-pyridin-2-yl]-benzylamino}-ethyl)-2-oxo-oxazolidin-3-yl]-4H-pyrido[3,2-b][1,4]oxazin-3-one]
1 (≈ 1.87 µM)	1 (≈ 1.87 µM)	1 (≈ 1.87 µM)	1 (≈ 1.87 µM)					COc1cc(OCCN)cc(-c2ccnc(CNCC[C@H]3CN(c4ccc5c(n4)NC(=O)CO5)C(=O)O3)c2)n1 [Example $162, 6-[(S)-5-(2-{[4-(2-amino-ethoxy)-6-methoxy-[2,4′]bipyridinyl-2′-ylmethyl]-amino}-ethyl)-2-oxo-oxazolidin-3-yl]-4H-pyrido[3,2-b][1,4]oxazin-3-one]
0.25 (≈ 0.447 µM)	1 (≈ 1.79 µM)	1 (≈ 1.79 µM)	1 (≈ 1.79 µM)					CN1CC[C@H](Oc2cccc(-c3cccc(CNCC[C@H]4CN(c5ccc6c(c5)NC(=O)CS6)C(=O)O4)c3)n2)C1 [Example $167, 6-[(S)-5-(2-{3-[6-((S)-1-methyl-pyrrolidin-3-yloxy)-pyridin-2-yl]-benzylamino}-ethyl)-2-oxo-oxazolidin-3-yl]-4H-benzo[1,4]thiazin-3-one]

Further lines, the molecule ahead of its results:

Compound	MIC (S. aureus A798) [µg/mL]	MIC (P. aeruginosa ATCC 27853) [µg/mL]	MIC (E. coli ATCC25922) [µg/mL]	MIC (K. pneumoniae T6474) [µg/mL]	MIC for S. aureus A798 (S. aureus A798) [µg/mL]	MIC for P. aeruginosa ATCC 27853 (P. aeruginosa ATCC 27853) [µg/mL]	MIC for E. coli ATCC25922 (E. coli ATCC25922) [µg/mL]	MIC for K. pneumoniae T6474 (K. pneumoniae T6474) [µg/mL]
O=C1COc2ccc(N3C[C@H](CCNCc4cccc(-c5cccc(OC[C@H]6CCN6)n5)c4)OC3=O)nc2N1 [Example $124, 6-[(S)-5-(2-{3-[6-((R)-1-azetidin-2-ylmethoxy)-pyridin-2-yl]-benzylamino}-ethyl)-2-oxo-oxazolidin-3-yl]-4H-pyrido[3,2-b][1,4]oxazin-3-one]	1 (≈ 1.88 µM)	0.5 (≈ 0.942 µM)	1 (≈ 1.88 µM)	2 (≈ 3.77 µM)				
O=C1COc2ccc(N3C[C@H](CCNCc4cccc(-c5cccc(OCC6COCCN6)n5)c4)OC3=O)nc2N1.O=CO (mixture of isomers) [Example $110, 6-[(S)-5-(2-{3-[6-((RS)-1-morpholin-3-ylmethoxy)-pyridin-2-yl]-benzylamino}-ethyl)-2-oxo-oxazolidin-3-yl]-4H-pyrido[3,2-b][1,4]oxazin-3-one formate]	0.25	2	1	2				
NCCOc1cc(-c2cccc(CNCC[C@H]3CN(c4ccc5c(n4)NC(=O)CO5)C(=O)O3)c2)ccn1.O=CO [Example 19, 6-[(S)-5-(2-{3-[2-(2-amino-ethoxy)-pyridin-4-yl]-benzylamino}-ethyl)-2-oxo-oxazolidin-3-yl]-4H-pyrido[3,2-b][1,4]oxazin-3-one formate]	8	1	1	4				
O=C1COc2ccc(N3C[C@H](CCNCc4cccc(-c5cccc(OC[C@@H]6CCN6)n5)c4)OC3=O)nc2N1.O=CO [Example $108, 6-[(S)-5-(2-{3-[6-((S)-1-azetidin-2-ylmethoxy)-pyridin-2-yl]-benzylamino}-ethyl)-2-oxo-oxazolidin-3-yl]-4H-pyrido[3,2-b][1,4]oxazin-3-oneformate]					2	0.5	1	2
CN1CC[C@H](Oc2ccnc(-c3cccc(CNCC[C@H]4CN(c5ccc6c(n5)NC(=O)CO6)C(=O)O4)c3)n2)C1 [Example $137, 6-[(S)-5-(2-{3-[4-((S)-1-methyl-pyrrolidin-3-yloxy)-pyrimidin-2-yl]-benzylamino}-ethyl)-2-oxo-oxazolidin-3-yl]-4H-pyrido[3,2-b][1,4]oxazin-3-one]	0.5 (≈ 0.916 µM)	1 (≈ 1.83 µM)	1 (≈ 1.83 µM)	1 (≈ 1.83 µM)				
O=C1COc2ccc(N3C[C@H](CCNCc4cccc(-c5cccc(OCCN6CCCC6)n5)c4)OC3=O)nc2N1 [Example 9, 6-[(S)-2-oxo-5-(2-{3-[6-(2-pyrrolidin-1-yl-ethoxy)-pyridin-2-yl]-benzylamino}-ethyl)-oxazolidin-3-yl]-4H-pyrido[3,2-b][1,4]oxazin-3-one]	0.125 (≈ 0.224 µM)	2 (≈ 3.58 µM)	2 (≈ 3.58 µM)	1 (≈ 1.79 µM)				
NCCCCOc1cccc(-c2cccc(CNCC[C@H]3CN(c4ccc5c(n4)NC(=O)CO5)C(=O)O3)c2)c1 [Example 5, 6-[(S)-5-(2-{[3′-(4-amino-butoxy)-biphenyl-3-ylmethyl]-amino}-ethyl)-2-oxo-oxazolidin-3-yl]-4H-pyrido[3,2-b][1,4]oxazin-3-one]	2 (≈ 3.76 µM)	4 (≈ 7.52 µM)	4 (≈ 7.52 µM)	4 (≈ 7.52 µM)				
CN1CC[C@@H]1COc1cccc(-c2cccc(CNCC[C@H]3CN(c4ccc5c(n4)NC(=O)CO5)C(=O)O3)c2)n1 [Example $125, 6-[(S)-5-(2-{3-[6-((R)-1-methyl-azetidin-2-ylmethoxy)-pyridin-2-yl]-benzylamino}-ethyl)-2-oxo-oxazolidin-3-yl]-4H-pyrido[3,2-b][1,4]oxazin-3-one]	0.5 (≈ 0.918 µM)	4 (≈ 7.34 µM)	1 (≈ 1.84 µM)	2 (≈ 3.67 µM)				
O=C1COc2ccc(N3C[C@H](CCNCc4cccc(-c5cccc(OC[C@@H]6CCCN6)n5)c4)OC3=O)nc2N1 [Example $133, 6-[(S)-2-oxo-5-(2-{3-[6-((S)-1-pyrrolidin-2-ylmethoxy)-pyridin-2-yl]-benzylamino}-ethyl)-oxazolidin-3-yl]-4H-pyrido[3,2-b][1,4]oxazin-3-one]	1 (≈ 1.84 µM)	0.5 (≈ 0.918 µM)	1 (≈ 1.84 µM)	2 (≈ 3.67 µM)				
